Source: the supplement of paper PMC8671470

Legend:
Conditions in all cases: 72 h
MV4-11 [1] = tested on: MV4-11
Outline: (§1)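 For the IC50, dose–response curves were fitted with a log-logistic model. The data came from fifteen myeloid leukaemia cell lines grown in RPMI 1640 at densities in the linear growth range and incubated in 384-well plates for 72 h at 37 °C under 5% CO2. Doses were five tenfold steps from 1 to 10,000 nM in duplicate, and luminescent ATP viability was normalised to vehicle and to a positive control at 10 µM before four-parameter fitting.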

K-562 [2] = tested on: K-562
Outline: as §1

Mono-Mac-6 [3] = tested on: Mono-Mac-6
Outline: as §1

KCL-22 [4] = tested on: KCL-22
Outline: as §1

ML-2 [5] = tested on: ML-2
Outline: as §1

KG-1 [6] = tested on: KG-1
Outline: as §1

LAMA-84 [7] = tested on: LAMA-84
Outline: as §1

MOLM-13 [8] = tested on: MOLM-13
Outline: as §1

KU-812 [9] = tested on: KU-812
Outline: as §1

HL-60 [10] = tested on: HL-60
Outline: as §1

THP-1 [11] = tested on: THP-1
Outline: as §1

SHI-1 [12] = tested on: SHI-1
Outline: as §1

HEL [13] = tested on: HEL
Outline: as §1

NOMO-1 [14] = tested on: NOMO-1
Outline: as §1

BV-173 [15] = tested on: BV-173
Outline: as §1

MV4-11 [16] = assay: cell viability (% survival relative to DMSO control, bortezomib = 0%); higher = less cytotoxic
Outline: (§2)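 Percent survival is reported as the mean of duplicate wells. Cells from 10 AML and 5 CML lines were plated in 384-well plates containing compounds at 1, 10, 100, 1000 or 10000 nM and kept for 72 h at 37 °C in 5% CO2. Readout used CellTiter-Glo luminescence, scaled so that vehicle equals 100% and a 10 µM positive control equals 0%.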

K-562 [17] = assay: as above
Outline: as §2

Mono-Mac-6 [18] = assay: as above
Outline: as §2

KCL-22 [19] = assay: as above
Outline: as §2

ML-2 [20] = assay: as above
Outline: as §2

KG-1 [21] = assay: as above
Outline: as §2

LAMA-84 [22] = assay: as above
Outline: as §2

MOLM-13 [23] = assay: as above
Outline: as §2

KU-812 [24] = assay: as above
Outline: as §2

HL-60 [25] = assay: as above
Outline: as §2

THP-1 [26] = assay: as above
Outline: as §2

SHI-1 [27] = assay: as above
Outline: as §2

HEL [28] = assay: as above
Outline: as §2

NOMO-1 [29] = assay: as above
Outline: as §2

BV-173 [30] = assay: as above
Outline: as §2

OCCN1C[C@H](O)[C@@H](O)[C@H](O)[C@H]1CO [Miglitol]
Conditions | IC50 (cell viability) [µM]
BV-173 [15] | > 10
HEL [13] | > 10
HL-60 [10] | > 10
K-562 [2] | > 10
KCL-22 [4] | > 10
KG-1 [6] | > 10
KU-812 [9] | > 10
LAMA-84 [7] | > 10
ML-2 [5] | > 10
MOLM-13 [8] | > 10
MV4-11 [1] | > 10
Mono-Mac-6 [3] | > 10
NOMO-1 [14] | > 10
SHI-1 [12] | > 10
THP-1 [11] | > 10

cell viability [%]
Conditions | 1 nM | 10 nM | 100 nM | 1000 nM | 10000 nM
BV-173 [30] | 90.6 | 110 | 89.7 | 94.6 | 105
HEL [28] | 107 | 101 | 86.5 | 96.7 | 101
HL-60 [25] | 86.9 | 95.7 | 93.1 | 105 | 87.2
K-562 [17] | 97.8 | 98.5 | 83.5 | 108 | 102
KCL-22 [19] | 91.5 | 108 | 96.6 | 95.9 | 106
KG-1 [21] | 101 | 95.7 | 91.9 | 94.7 | 101
KU-812 [24] | 101 | 103 | 86.9 | 98.3 | 96
LAMA-84 [22] | 97 | 97.8 | 101 | 98.5 | 93.6
ML-2 [20] | 95.4 | 104 | 89.3 | 96 | 105
MOLM-13 [23] | 92.1 | 91.3 | 93 | 123 | 99.1
MV4-11 [16] | 102 | 97 | 90.4 | 106 | 106
Mono-Mac-6 [18] | 106 | 102 | 98.1 | 91.3 | 99.1
NOMO-1 [29] | 98.2 | 102 | 100 | 93.7 | 98.5
SHI-1 [27] | 102 | 109 | 105 | 92.8 | 103
THP-1 [26] | 102 | 106 | 100 | 95.9 | 101

CCCCCCCCCCCCC/C=C/[C@@H](O)[C@H](CO)N(C)C [N,N-Dimethylsphingosine]
Conditions | IC50 (cell viability) [µM]
BV-173 [15] | 1.67
HEL [13] | 2.98
HL-60 [10] | > 10
K-562 [2] | > 10
KCL-22 [4] | 2.78
KG-1 [6] | 3.58
KU-812 [9] | > 10
LAMA-84 [7] | > 10
ML-2 [5] | 3.46
MOLM-13 [8] | > 10
MV4-11 [1] | > 10
Mono-Mac-6 [3] | > 10
NOMO-1 [14] | > 10
SHI-1 [12] | > 10
THP-1 [11] | > 10

cell viability [%]
Conditions | 1 nM | 10 nM | 100 nM | 1000 nM | 10000 nM
BV-173 [30] | 93 | 89.7 | 98.7 | 74.2 | 22.5
HEL [28] | 96.2 | 94.6 | 103 | 96.2 | 0.109
HL-60 [25] | 90.6 | 84.7 | 100 | 105 | 88.9
K-562 [17] | 97.4 | 95.2 | 103 | 104 | 85.6
KCL-22 [19] | 95.8 | 98 | 101 | 91.3 | 1.85
KG-1 [21] | 92.2 | 96.8 | 101 | 82.7 | 37.4
KU-812 [24] | 101 | 90.5 | 103 | 102 | 55
LAMA-84 [22] | 101 | 96.7 | 106 | 91.3 | 93.3
ML-2 [20] | 95.1 | 96.8 | 97.7 | 107 | -0.179
MOLM-13 [23] | 97.3 | 96.5 | 86.2 | 104 | 71.1
MV4-11 [16] | 94.2 | 102 | 95 | 117 | 95.8
Mono-Mac-6 [18] | 95.1 | 91.7 | 97.9 | 89.4 | 70
NOMO-1 [29] | 92 | 101 | 100 | 94.1 | 85.8
SHI-1 [27] | 101 | 97.8 | 104 | 97.8 | 83.8
THP-1 [26] | 97.5 | 100 | 105 | 89.7 | 61.7
